{"source": "patent US20250360235A1", "about": "“RADI[…] AND METHOD FOR RADIOLABELLING” (Telix Innovations SA, priority 2024, published 2025)", "assay": "Radiochemical purity by iTLC over time after radiolabelling", "format": "physicochemical", "experimental": "Table 1 to Table 5 show the results of various radiolabelling experiments on radiochemical purity and the chelation yield. The radiolabelling experiments in the tables are carried out as described in: • Example 1 for when the gallium-68 source is GE Liquid target generator and EZAG GalliaPharm generator; • Example 2 for when the gallium-68 source is IRE Galli Eo generator; • Example 3 for when the gallium-68 source is GE solid target generator;\nHowever, the experiments were carried out with the amount of ascorbic acid as indicated in the Tables 1 to 5, and the activity as indicated in the Tables 1 to 5. Radiochemical purities were measured at various times (T0, T1, T4, T6) after the radiolabelled experiments have been conducted.\nThe kits of Example 1, Example 2 or Example 3, with amounts of ascorbic acid as set out in Table 7 were used in the experiments for the ascorbic acid bracketing matrix. Three strengths of [^68Ga]Ga-PSMA-11 will be tested, i.e. 50 mCi/ml, 7 mCi/ml and 1 mCi/ml. Radiochemical purity was determined at different time points (TO, T1, T4 or T6), as set out in Table 7.", "key": {"[1]": {"details": "1 mg ascorbic acid, 58.7-71.1 mCi, 7.47-8.99 mCi/mL, GE Liquid target, average of 3, T0"}, "[2]": {"details": "1 mg ascorbic acid, 58.7-71.1 mCi, 7.47-8.99 mCi/mL, GE Liquid target, average of 3, T4 (4 h)"}, "[3]": {"details": "1 mg ascorbic acid, 58.7-71.1 mCi, 7.47-8.99 mCi/mL, GE Liquid target, n=3, T0"}, "[4]": {"details": "1 mg ascorbic acid, 58.7-71.1 mCi, 7.47-8.99 mCi/mL, GE Liquid target, n=3, T4 (4 h)"}, "[5]": {"details": "2.5 mg ascorbic acid, 49.9-76.9 mCi, 6.31-9.72 mCi/mL, GE Liquid target, average of 3, T0"}, "[6]": {"details": "2.5 mg ascorbic acid, 49.9-76.9 mCi, 6.31-9.72 mCi/mL, GE Liquid target, average of 3, T4 (4 h)"}, "[7]": {"details": "2.5 mg ascorbic acid, 49.9-76.9 mCi, 6.31-9.72 mCi/mL, GE Liquid target, n=3, T0"}, "[8]": {"details": "2.5 mg ascorbic acid, 49.9-76.9 mCi, 6.31-9.72 mCi/mL, GE Liquid target, n=3, T4 (4 h)"}, "[9]": {"details": "5 mg ascorbic acid, 60-69.9 mCi, 7.61-8.81 mCi/mL, 3 × GE Liquid Target, 3 × EZAG GalliaPharm, average of 6, T0"}, "[10]": {"details": "5 mg ascorbic acid, 60-69.9 mCi, 7.61-8.81 mCi/mL, 3 × GE Liquid Target, 3 × EZAG GalliaPharm, average of 6, T4 (4 h)"}, "[11]": {"details": "5 mg ascorbic acid, 60-69.9 mCi, 7.61-8.81 mCi/mL, 3 × GE Liquid Target, 3 × EZAG GalliaPharm, n=6, T0"}, "[12]": {"details": "5 mg ascorbic acid, 60-69.9 mCi, 7.61-8.81 mCi/mL, 3 × GE Liquid Target, 3 × EZAG GalliaPharm, n=6, T4 (4 h)"}, "[13]": {"details": "10 mg ascorbic acid, 458-500 mCi, 43.4-47.3 mCi/mL, GE Solid Target, average of 3, T0"}, "[14]": {"details": "10 mg ascorbic acid, 458-500 mCi, 43.4-47.3 mCi/mL, GE Solid Target, average of 3, T4 (4 h)"}, "[15]": {"details": "10 mg ascorbic acid, 458-500 mCi, 43.4-47.3 mCi/mL, GE Solid Target, n=3, T0"}, "[16]": {"details": "10 mg ascorbic acid, 458-500 mCi, 43.4-47.3 mCi/mL, GE Solid Target, n=3, T4 (4 h)"}, "[17]": {"details": "10 mg ascorbic acid, 514-520 mCi, 49.0-66.1 mCi/mL, GE Solid Target, average of 3, T0"}, "[18]": {"details": "10 mg ascorbic acid, 514-520 mCi, 49.0-66.1 mCi/mL, GE Solid Target, average of 3, T6 (6 h)"}, "[19]": {"details": "10 mg ascorbic acid, 514-520 mCi, 49.0-66.1 mCi/mL, GE Solid Target, n=3, T0"}, "[20]": {"details": "10 mg ascorbic acid, 514-520 mCi, 49.0-66.1 mCi/mL, GE Solid Target, n=3, T6 (6 h)"}}}
{"smiles": "O=C([O-])CN(CCN(CC(=O)[O-])Cc1cc(CCC(=O)NCCCCCC(=O)NCCCC[C@H](NC(=O)N[C@@H](CCC(=O)O)C(=O)O)C(=O)O)ccc1[O-])Cc1cc(CCC(=O)O)ccc1[O-].[68Ga+3].[OH3+]", "note": "[[^68Ga]PSMA-11, gallium-68 radiolabelled Glu-urea-Lys-HBED-CC (gozetotide or PSMA-11)]", "values": [{"measurement": "Radiochemical Purity (iTLC) Free and Colloidal Ga-68 (%)", "setting": "[1]", "value": 0, "unit": "%"}, {"measurement": "Radiochemical Purity (iTLC) Ga-68 PSMA-11 (%)", "setting": "[1]", "value": 100, "unit": "%"}, {"measurement": "Radiochemical Purity (iTLC) Free and Colloidal Ga-68 (%)", "setting": "[2]", "value": 0, "unit": "%"}, {"measurement": "Radiochemical Purity (iTLC) Ga-68 PSMA-11 (%)", "setting": "[2]", "value": 100, "unit": "%"}, {"measurement": "Radiochemical Purity (iTLC) Free and Colloidal Ga-68 (%)", "setting": "[3]", "value": "C (C = conforms to specifications)"}, {"measurement": "Radiochemical Purity (iTLC) Ga-68 PSMA-11 (%)", "setting": "[3]", "value": "C (C = conforms to specifications)"}, {"measurement": "Radiochemical Purity (iTLC) Free and Colloidal Ga-68 (%)", "setting": "[4]", "value": "C (C = conforms to specifications)"}, {"measurement": "Radiochemical Purity (iTLC) Ga-68 PSMA-11 (%)", "setting": "[4]", "value": "C (C = conforms to specifications)"}, {"measurement": "Radiochemical Purity (iTLC) Free and Colloidal Ga-68 (%)", "setting": "[5]", "value": 0, "unit": "%"}, {"measurement": "Radiochemical Purity (iTLC) Ga-68 PSMA-11 (%)", "setting": "[5]", "value": 100, "unit": "%"}, {"measurement": "Radiochemical Purity (iTLC) Free and Colloidal Ga-68 (%)", "setting": "[6]", "value": 0, "unit": "%"}, {"measurement": "Radiochemical Purity (iTLC) Ga-68 PSMA-11 (%)", "setting": "[6]", "value": 100, "unit": "%"}, {"measurement": "Radiochemical Purity (iTLC) Free and Colloidal Ga-68 (%)", "setting": "[7]", "value": "C (C = conforms to specifications)"}, {"measurement": "Radiochemical Purity (iTLC) Ga-68 PSMA-11 (%)", "setting": "[7]", "value": "C (C = conforms to specifications)"}, {"measurement": "Radiochemical Purity (iTLC) Free and Colloidal Ga-68 (%)", "setting": "[8]", "value": "C (C = conforms to specifications)"}, {"measurement": "Radiochemical Purity (iTLC) Ga-68 PSMA-11 (%)", "setting": "[8]", "value": "C (C = conforms to specifications)"}, {"measurement": "Radiochemical Purity (iTLC) Free and Colloidal Ga-68 (%)", "setting": "[9]", "value": 0, "unit": "%"}, {"measurement": "Radiochemical Purity (iTLC) Ga-68 PSMA-11 (%)", "setting": "[9]", "value": 100, "unit": "%"}, {"measurement": "Radiochemical Purity (iTLC) Free and Colloidal Ga-68 (%)", "setting": "[10]", "value": 0, "unit": "%"}, {"measurement": "Radiochemical Purity (iTLC) Ga-68 PSMA-11 (%)", "setting": "[10]", "value": 100, "unit": "%"}, {"measurement": "Radiochemical Purity (iTLC) Free and Colloidal Ga-68 (%)", "setting": "[11]", "value": "C (C = conforms to specifications)"}, {"measurement": "Radiochemical Purity (iTLC) Ga-68 PSMA-11 (%)", "setting": "[11]", "value": "C (C = conforms to specifications)"}, {"measurement": "Radiochemical Purity (iTLC) Free and Colloidal Ga-68 (%)", "setting": "[12]", "value": "C (C = conforms to specifications)"}, {"measurement": "Radiochemical Purity (iTLC) Ga-68 PSMA-11 (%)", "setting": "[12]", "value": "C (C = conforms to specifications)"}, {"measurement": "Radiochemical Purity (iTLC) Free and Colloidal Ga-68 (%)", "setting": "[13]", "value": 0, "unit": "%"}, {"measurement": "Radiochemical Purity (iTLC) Ga-68 PSMA-11 (%)", "setting": "[13]", "value": 100, "unit": "%"}, {"measurement": "Radiochemical Purity (iTLC) Free and Colloidal Ga-68 (%)", "setting": "[14]", "value": 0, "unit": "%"}, {"measurement": "Radiochemical Purity (iTLC) Ga-68 PSMA-11 (%)", "setting": "[14]", "value": 100, "unit": "%"}, {"measurement": "Radiochemical Purity (iTLC) Free and Colloidal Ga-68 (%)", "setting": "[15]", "value": "C (C = conforms to specifications)"}, {"measurement": "Radiochemical Purity (iTLC) Ga-68 PSMA-11 (%)", "setting": "[15]", "value": "C (C = conforms to specifications)"}, {"measurement": "Radiochemical Purity (iTLC) Free and Colloidal Ga-68 (%)", "setting": "[16]", "value": "C (C = conforms to specifications)"}, {"measurement": "Radiochemical Purity (iTLC) Ga-68 PSMA-11 (%)", "setting": "[16]", "value": "C (C = conforms to specifications)"}, {"measurement": "Radiochemical Purity (iTLC) Free and Colloidal Ga-68 (%)", "setting": "[17]", "value": 0, "unit": "%"}, {"measurement": "Radiochemical Purity (iTLC) Ga-68 PSMA-11 (%)", "setting": "[17]", "value": 100, "unit": "%"}, {"measurement": "Radiochemical Purity (iTLC) Free and Colloidal Ga-68 (%)", "setting": "[18]", "value": 0, "unit": "%"}, {"measurement": "Radiochemical Purity (iTLC) Ga-68 PSMA-11 (%)", "setting": "[18]", "value": 100, "unit": "%"}, {"measurement": "Radiochemical Purity (iTLC) Free and Colloidal Ga-68 (%)", "setting": "[19]", "value": "C (C = conforms to specifications)"}, {"measurement": "Radiochemical Purity (iTLC) Ga-68 PSMA-11 (%)", "setting": "[19]", "value": "C (C = conforms to specifications)"}, {"measurement": "Radiochemical Purity (iTLC) Free and Colloidal Ga-68 (%)", "setting": "[20]", "value": "C (C = conforms to specifications)"}, {"measurement": "Radiochemical Purity (iTLC) Ga-68 PSMA-11 (%)", "setting": "[20]", "value": "C (C = conforms to specifications)"}, {"measurement": "Radiochemical Purity (iTLC) Free and Colloidal Ga-68 (%)", "setting": "15 mg ascorbic acid, 10.0-18.4 mCi, 0.95-1.77 mCi/mL, 1 × EZAG GalliaPharm, 2 × IRE Galli Eo, average of 3, T0", "value": 0, "unit": "%"}]}
